Assays:
[1] = tested on: Aβ40 degrading enzyme activity in Neuro-2a conditioned medium; experiment: Aβ40 degradation in Neuro-2a conditioned medium (Human Aβ1-40 immunoassay); format: biochemical, mouse; conditions: 50 μM and 100 μM, 24 hours 37° C., FIG. 5
Method: Experimental method: 2×10^7 of mouse neuroblastoma cells (Neuro-2a) were placed on a T175 culture medium, and after overnight, the T175 culture medium was replaced with 30 mL of a chemical-defined medium incubating for 24 hours. After 24 hours, the chemical-defined medium incubated with the cells, which was called a conditioned medium, was centrifuged for 5 minutes at 13,000 rpm, and supernatant liquid was obtained. 10 ng of Aβ40 and testing medicine were added to 300 μL of the conditioned medium, and the mixture was reacted at 37° C. for 24 hours. Immunoassay kits (Human Aβ1-40 Immunoassay kits, Cat.KHB3482, Life Technologies) were used to measure the remaining amount of Aβ in each reaction to examine whether the medicine can improve the activity for enzyme in the medium to degrade Aβ. One not adding any testing medicine (i.e. only containing 10 ng of Aβ40) was a control, and the measured level of Aβ was set to 100%. The levels of Aβ after treated by the testing medicine were compared to the control and expressed in percentage. […] The statistical differences between the control and the testing samples were analyzed by Dunnett's multiple comparison test, which “*” represented p<0.05; “**” represented p<0.01; “***” represented p<0.001; and “****” represented p<0.0001.

β-amyloid peptides (Aβ) = conditions: position of the caffeoyl group (sixth vs fourth), WO 2011/157059 A1; cited from earlier work

Row | SMILES | extracellular Aβ40 degradation [1] | activity of inhibiting β-amyloid peptides (Aβ) accumulation (β-amyloid peptides (Aβ))
1 | O=C(/C=C/c1ccc(O)c(O)c1)OCC1OC(OCCc2ccc(O)c(O)c2)C(O)C(O)C1O (centres unmarked) [Sample 9] | could effectively improve extracellular Aβ40 degradation | –
2 | C[C@@H]1O[C@@H](O[C@@H]2[C@@H](O)[C@H](OCCc3ccc(O)c(O)c3)O[C@H](COC(=O)/C=C/c3ccc(O)c(O)c3)[C@H]2O)[C@H](O)[C@H](O)[C@H]1O [isoacteoside] | – | better

From US20150291645A1, “ISOACTEOSIDE DERIVATIVE AND USE THEREOF” (Sinphar Pharmaceutical Co., Ltd., priority 2014, published 2015)
